# From patent US10363314B2, “Sprayable topical carrier and composition comprising phosphatidylcholine” (LIPIDOR AB, priority 2013, dated 2019)
# Tested on: human skin
# Assay: Erythema occurrence upon treating skin with carriers under occlusion for 12 days, first study
# Format: in vivo
# Details: 33 healthy volunteers, occlusive conditions, applied 5 days per week, scored after 12 days, index 0-4
# Description: The effect of prior art pharmaceutical compositions and of carriers and compositions of the invention on human skin was observed by visual inspection or by determining erythema index by using DermaLab Combo and DSM II Colormeter (Cortex Technology, Denmark).
# Erythema occurrence was assessed in two human studies. In the first study the skin irritation potential of different lipid carriers was evaluated. Thirty-three healthy volunteers received the test formulations and a positive and negative control under occlusive conditions. The test articles were applied 5 days per week and the irritation grade was scored after 12 days according to a four-level assessment index (0=No reaction; 1=Slight diffuse, partial erythema; 2=Clear, sharply demarcated erythema; 3=Severe erythema with induration; 4=Severe erythema with induration and/or epidermal defect).
structure (smiles),measurement,value
"CCCCCCCCCCCCOS(=O)(=O)[O-].[Na+] [Pos. control, Sodium dodecylsulfate]",Mean erythema assessment index,3.0
